Experimental data: patent publication US20210087593A1, “N-[…] ALKALOID COMPOUNDS” (Willow BioSciences Inc., priority 2017, published 2021)

Legend:
PsRNMT = assay: N-alkylation substrate screen using PsRNMT (LC-MS); assay type: biochemical, Papaver somniferum; parameters: key: −=no detectable quantities of product N-alkylated compound; Trace, +, ++, +++=increasing relative levels of product N-alkylated compound; Trace, +, ++, +++=increasing relative levels of product N-alkylated compound; Trace, +, ++, +++=increasing relative levels of product N-alkylated compound; Trace, +, ++, +++=increasing relative levels of product N-alkylated compound; settings: 25 μg protein, 1 mM substrate, 1 mM SAM, 60 mM HEPES pH 8, 16 hours at 37° C.; relative level of N-alkylated product by LC-MS
Protocol: (§1) The GfCNMT, GfTNMT and PsRNMT coding sequences were amplified from Glaucium flavum (GfCNMT and GfTNMT) or Papaver somniferum (PsRNMT) cDNA using gene-specific primers containing attB recombination sites with Q5 HiFi DNA polymerase (NEB). Recombination reactions were carried out using BP and LR Clonase II (Thermo Scientific) to generate individual pDONR221 entry plasmids and, subsequently, individual pHGWA plasmids for heterologous expression of polyhistidine (HIS6)-tagged recombinant GfCNMT, GfTNMT and PsRNMT. Protein overexpression was carried out at 18° C. using E. coli ArcticExpress (Agilent) grown in Studier's autoinduction media.
(§2) Total soluble protein was extracted from each culture and the recombinant NMTs were purified using TALON cobalt affinity resin (Clontech) followed by desalting and concentration with Amicon Ultra-30 centrifugal filters (EMD Millipore). Protein concentration was determined using the Bradford method, and purity was assessed by SDS-PAGE followed by Coomassie staining.
(§3) Forty-four nitrogenous molecules were screened as potential substrates for EsNMT using a standardized assay (25 μg protein, 1 mM substrate, 1 mM SAM, 60 mM HEPES pH 8, 16 hours at 37° C.). In addition, a representative subset was screened as potential substrates for GfCNMT, GfTNMT and PsRNMT under identical conditions. For each substrate and enzyme combination, negative control assays were carried out using protein heated to 100° C. (boiled) for 20 minutes. Assays were quenched with 9 volumes of methanol, centrifuged to pellet insoluble debris and the supernatants were stored at −20° C. prior to analysis.
(§4) Assay supernatants were analyzed by liquid chromatography-mass spectrometry (LC-MS). LC-MS analysis was performed using a 1200 HPLC coupled with a 6410 triple-quadrupole MS (Agilent). Samples (2 μl) were injected onto a Luna […] Phenyl-Hexyl 100 Å HPLC column and analytes were eluted in a gradient of solvent A (0.1% Formic acid, 5% v/v methanol in water) and solvent B (0.1% Formic acid in methanol) at a flow rate of 300 μl per minute. The gradient began at 0% B, reached 35% B by 12 minutes, then increased to 85% B at 14 min and remained at that level until 18 minutes. Subsequently, the mixture returned to 0% B over a period of 3 minutes before a final 6 minute re-equilibration period. Analytes were applied to the mass analyzer using an electrospray ionization probe operating in positive mode with the following condition: capillary voltage, 4000V; fragmentor voltage, 100V, source temperature, 350° C.; nebulizer pressure, 50 PSI; gas flow 10 L/min. Ions were detected in full scan mode where quadrupoles 1 and 2 were set to RF only, whereas the third quadrupole scanned from 100-500 m/z over 525 milliseconds. Substrate acceptance by the enzymes was determined according to the formation of a peak with a 14-m/z increase in mass, corresponding to methylated substrate and a decrease in the substrate peak area, relative to the appropriate boiled control assay.
(§5) Each of the alkaloid substrates shown in Table 1 were incubated with the following N-alkyltransferases: GfCNMT (SEQ. ID NO: 3), gfTNMT (SEQ. ID NO: 4) and Ps RNMT ([…]) and EsNMT (SEQ. ID NO: 2), as described in Example 1. The presence of N-alkylated alkaloid product was detected as described in Examples 1-20. Legend: ND=Not Determined; −=no detectable quantities of product N-alkylated compound; and Trace, +, ++, +++=increasing relative levels of product N-alkylated compound.

EsNMT = assay: N-alkylation substrate screen using EsNMT (LC-MS); assay type: biochemical, Ephedra sinica; parameters: key to N-alkylation of substrate alkaloid compounds, Enzyme EsNMT: −=no detectable quantities of product N-alkylated compound; Trace, +, ++, +++=increasing relative levels of product N-alkylated compound; Trace, +, ++, +++=increasing relative levels of product N-alkylated compound; Trace, +, ++, +++=increasing relative levels of product N-alkylated compound; Trace, +, ++, +++=increasing relative levels of product N-alkylated compound; settings: for N-alkylation of substrate alkaloid compounds, Enzyme EsNMT: 25 μg protein, 1 mM substrate, 1 mM SAM, 60 mM HEPES pH 8, 16 hours at 37° C., relative level of N-alkylated product by LC-MS; for N-alkylated alkaloid product detected after incubation with EsNMT (SEQ. ID NO: 2): incubated in accordance with Example 1, LC-MS
Protocol: The EsNMT coding sequence was amplified from Ephedra sinica cDNA using gene-specific primers containing restriction sites with Q5 HiFi DNA polymerase (NEB). Restriction digests and ligations (NEB) were carried out to generate a pQE plasmid (Qiagen) for heterologous expression of HIS6-tagged recombinant EsNMT. Protein overexpression was carried out at 18° C. in Escherichia coli SG13009 (Qiagen) grown in lysogeny broth (LB) to which 0.5 mM isopropyl β-D-1-thiogalactopyranoside (IPTG) was added.
as §2, §3, §4, §5

GfCNMT = assay: N-alkylation substrate screen using GfCNMT (LC-MS); assay type: biochemical, Glaucium flavum; parameters: key: −=no detectable quantities of product N-alkylated compound; Trace, +, ++, +++=increasing relative levels of product N-alkylated compound; Trace, +, ++, +++=increasing relative levels of product N-alkylated compound; Trace, +, ++, +++=increasing relative levels of product N-alkylated compound; Trace, +, ++, +++=increasing relative levels of product N-alkylated compound; settings: 25 μg protein, 1 mM substrate, 1 mM SAM, 60 mM HEPES pH 8, 16 hours at 37° C.; relative level of N-alkylated product by LC-MS
Protocol: as §1, §2, §3, §4, §5

GfTNMT = assay: N-alkylation substrate screen using GfTNMT (LC-MS); assay type: biochemical, Glaucium flavum; parameters: key: −=no detectable quantities of product N-alkylated compound; Trace, +, ++, +++=increasing relative levels of product N-alkylated compound; Trace, +, ++, +++=increasing relative levels of product N-alkylated compound; Trace, +, ++, +++=increasing relative levels of product N-alkylated compound; Trace, +, ++, +++=increasing relative levels of product N-alkylated compound; settings: 25 μg protein, 1 mM substrate, 1 mM SAM, 60 mM HEPES pH 8, 16 hours at 37° C.; relative level of N-alkylated product by LC-MS
Protocol: as §1, §2, §3, §4, §5

| Structure (SMILES) | N-alkylation of substrate alkaloid compounds, Enzyme PsRNMT (PsRNMT) | N-alkylation of substrate alkaloid compounds, Enzyme EsNMT (EsNMT) | N-alkylated alkaloid product detected after incubation with EsNMT (SEQ. ID NO: 2) (EsNMT) | N-alkylation of substrate alkaloid compounds, Enzyme GfCNMT (GfCNMT) | N-alkylation of substrate alkaloid compounds, Enzyme GfTNMT (GfTNMT) |
| --- | --- | --- | --- | --- | --- |
| NCCc1c[nH]cn1 [Histamine, histamine] | − | − | No N-alkylated alkaloid product compounds were detected | − | − |
| NCCc1ccccc1 [2-Phenylethaneamine, 2-phenylethan-1-amine] | − | + |  | Trace | Trace |
| NC(=O)c1cccnc1 [Nicotinamide, nicotinamide] | − | − | No N-alkylated alkaloid product compounds were detected | − | − |
| c1cc2c(c3c1C[C@H]1c4cc5c(cc4CCN1C3)OCO5)OCO2 [Stylopine, stylopine] | +++ | + |  | + | + |
| NCCc1c[nH]c2ccccc12 [Tryptamine, tryptamine] | Trace | +++ |  | Trace | Trace |
| CC(C)NC[C@H](O)COc1cccc2ccccc12 (racemic) [Propanolol, propanolol, reference compound] | +++ | + |  | ++ | +++ |
| NCCc1ccc(O)cc1 [Tyramine, tyramine] | − | + |  | + | − |
| COc1cc2c(cc1OC)CNCC2 [THQ2, 6,7-dimethoxy-1,2,3,4-tetrahydroisoquinoline] | + | +++ |  | +++ | + |
| COc1cc2c(cc1O)C(Cc1ccc(O)cc1)NCC2 (stereo not shown) [Coclaurine, coclaurine] | ++ | + |  | +++ | + |
| COc1ccc2c(c1)[nH]c1c(C)nccc12 [Harmine, harmine] | − | − | No N-alkylated alkaloid product compounds were detected | ++ | − |
| COc1cc(CCN)cc(OC)c1OC [Mescaline, mescaline] | − | + |  | − | − |
| CC(N)c1ccccc1 (stereo not shown) [1-Phenylethaneamine, 1-phenylethan-1-amine] |  | − | No N-alkylated alkaloid product compounds were detected |  |  |
| CN[C@@H](C)[C@H](O)c1ccccc1 [Ephedrine, ephedrine, reference compound] | − | + |  | − |  |
| N[C@@H](Cc1ccccc1)C(=O)O [Phenylalanine, phenylalanine] |  | − | No N-alkylated alkaloid product compounds were detected |  |  |
| NCCS(=O)(=O)O [Taurine, taurine] |  | − | No N-alkylated alkaloid product compounds were detected |  |  |
| O=c1[nH]c(=O)c2ncn([C@@H]3O[C@H](CO)[C@@H](O)[C@H]3O)c2[nH]1 [Xanthosine, xanthosine] |  | − | No N-alkylated alkaloid product compounds were detected |  |  |
| CNC(C)C(=O)c1ccccc1 (stereo not shown) [N-Methyl-cathinone, N-methyl-cathinone] |  | + |  |  |  |
| CNCC(O)c1ccc(O)cc1 (stereo not shown) [Synephrine, synephrine] |  | + |  |  |  |
| CN(C)c1ccc(C=O)cc1 [p-dimethylaminobenzaldehyde] |  | − | No N-alkylated alkaloid product compounds were detected |  |  |
| N[C@@H](Cc1ccc(O)c(O)c1)C(=O)O [3,4-dihydroxyphenylalanine] |  | − | No N-alkylated alkaloid product compounds were detected |  |  |
